The test system of experiment [1] is gram-negative bacteria with MBL, for example Klebsiella pneumoniae, E. coli and Pseudomonas aeruginosa. The settings on record: meropenem used alone; cited from earlier work.
In experiment [2] the test system is Klebsiella pneumoniae Kpn St147 (NDM-1 and KPC-2). In words: MIC determination of cefepime with zinc chelator and avibactam (checkerboard, broth microdilution). The conditions noted are these: with FEP and zinc chelator. In kind it is cell-based. How it is done:
(§1) Antimicrobial susceptibility testing (AST) by broth microdilution was performed according to The European Committee on Antimicrobial Susceptibility Testing. Reading guide for broth microdilution. Version 4.0, 2022 (see: http://www.eucast.org).
(§2) Checkerboard 96-well plates (Corning 3788) were made by conducting serial two-fold dilutions of cefepime in cation-adjusted Mueller Hinton II broth (caMHB; Thermo Scientific, T3462), in columns across the microtiter plate (64-0.03 μg/ml). Additionally, avibactam was added to rows 3 to 8 in concentrations of 64, 16, 8, 4, 1 and 0.25 μg/ml, respectively. The zinc chelator was added to the wells of the plate, where applicable. Three plates were made per experiment, one without the zinc chelator (plate 1), one with 16 μg/ml of the zinc chelator (plate 2) and one with 32 μg/ml of the zinc chelator (plate 3). The first row in all plates was used as a positive control for cefepime only, and the second row included the zinc chelator in addition to cefepime (no avibactam added to rows 1 or 2). The zinc chelator was added at the indicated concentration, to rows 3-8 of plates 2 and 3.
The effect of the combination of zinc chelator/FEP/avibactam was tested on a clinically isolated Klebsiella pneumoniae Kpn St147 actively constitutionally expressing the two resistance mechanisms NDM-1 and KPC-2 simultaneously. As a negative control, bacteria+FEP was tested alone. As a positive control, bacteria+FEP+zinc chelator was used. In Tables 1 and 2, concentrations (μg/ml) of FEP are given in the top row left to right and avibactam concentrations (μg/ml) are given top to bottom in column 1.
(§3) The fractional inhibitory concentration (FIC) is defined as the concentration that kills when used in combination with another agent divided by the concentration that has the same effect when used alone. The FIC index (FICI) for the combination of two agents is the sum of their individual FIC values. […] The European Committee for Antimicrobial Susceptibility Testing (EUCAST) of the European Society of Clinical Microbiology and Infectious Diseases (ESCMID) 2000 adopts the following definitions to determine the susceptibility of bacteria to an antimicrobial agent (see EUCAST Definitive Document E. Def 1.2: Terminology relating to methods for the determination of susceptibility of bacteria to antimicrobial agents. Clin. Microbiol. Infect. 2000; 6(9): 503-508): • FICI value≤0.5; synergy • 0.5<FICI value≤1; additive effect • 1<FICI value≤2; indifferent effect • FICI≥2; antagonistic effect
To test for synergy, all data were subjected to the following formula in which A=zinc chelator; B=cefepime; and C=avibactam:
(§4) ΣFICI=MICA(combination)/MICA (alone)+MICB(combination)/MICB (alone)+MICC(combination)/MICC (alone)
Background: Broth dilution looks for growth in wells or tubes with falling amounts of substance.

For experiment [3] the test system is unchanged. Kind of experiment: MIC determination of ceftazidime with zinc chelator and avibactam (checkerboard, broth microdilution). In kind it is cell-based. The settings on record: with CAZ and zinc chelator.
Source text: as §3, §1
as §2, with “CAZ” for “cefepime”, “Three plates were made per experiment, one without the zinc chelator (plate 1), one with 16 μg/ml of the zinc chelator (plate 2) and one with 32 μg/ml of the zinc chelator (plate 3).” left out, “concentration” for “concentration,”
The effect of the combination of zinc chelator/CAZ/avibactam was tested on a clinically isolated Klebsiella pneumoniae Kpn St147 actively constitutionally expressing the two resistance mechanisms NDM-1 and KPC-2 simultaneously. As a negative control, bacteria+CAZ was tested alone. As a positive control, bacteria+CAZ+zinc chelator was used. In Tables 3 and 4, concentrations (μg/ml) of CAZ are given in the top row left to right and avibactam concentrations (μg/ml) are given top to bottom in column 1.
as §4

The test system of a further experiment is MBL-producers. The conditions noted are these: in combination with cefepime; cited from earlier work.
In another experiment the test system is MBL class IMP. The settings on record: in combination with cefepime; cited from earlier work.
For a further experiment, the system named is NDM. The conditions noted are these: cited from earlier work.

The values that follow come from patent US20260325538A1, “THERAPY” (priority 2023, published 2026).

`C[C@@H](O)[C@H]1C(=O)N2C(C(=O)O)=C(S[C@@H]3CN[C@H](C(=O)N(C)C)C3)[C@H](C)[C@H]12` [meropenem]: the “sensitivity of gram-negative bacteria with MBL” value in experiment [1] is on record as “resistant to the antibiotic”.
Consider `NC(=O)[C@@H]1CC[C@@H]2CN1C(=O)N2OS(=O)(=O)O` [Avibactam, avibactam], for which the “FICI Avibactam” value in experiment [2] (avibactam 0.25 μg/mL) was determined as 0.0001; in experiment [2] (avibactam 1 μg/mL), 0.0005; in experiment [2] (avibactam 4 μg/mL), 0.0020; in experiment [2] (avibactam 8 μg/mL) it was 0.0039; in experiment [2] (avibactam 16 μg/mL), 0.0078; in experiment [3] (avibactam 0.25 μg/mL), 0.0001. Moreover, the “FICI Avibactam” value in experiment [3] (avibactam 1 μg/mL) is reported as 0.0005; in experiment [3] (avibactam 4 μg/mL), 0.0020; in experiment [3] (avibactam 8 μg/mL), 0.0039; in experiment [3] (avibactam 16 μg/mL), 0.0078.
With `NCCN[C@H]1CC[C@H](CC(=O)N[C@H]2Cc3cccc(C(=O)O)c3OB2O)CC1` [taniborbactam], the “activity against MBL-producers” value in the experiment with MBL-producers is “potent activity”. Besides, the “effect against MBL class IMP” value in the experiment on MBL class IMP is recorded as “no effect”.
On to `N[C@@H](CN[C@@H](CN[C@@H](CC(=O)O)C(=O)O)C(=O)O)C(=O)O` [aspergillomarasmine A], for which the in vivo activity result with NDM (mouse models) is “shown in vivo activity in mouse models”. Also, the “doses required to reverse carbapenem resistance” value in the experiment with NDM (mouse, in vivo) is recorded as “relatively high doses”.
